Columns and labels:
Assay type in all cases: functional
[1] = Antioxidant activity assessed as AAPH radical scavenging activity at 12.5 uM ORAC assay
PC-12 = experiment: Cytoprotective activity against H2O2-induced oxidative injury in rat PC-12 cells assessed as cell viability at 10 uM incubated for 24 hrs (reference value: 46.91 +/- 3.74%); settings: for viability at 10 µM: read-out: Activity
[2] = Antioxidant activity assessed as DPPH radical scavenging activity incubated for 30 mins

## COc1c(O)c(O)c(C)c2scnc12
[1]
  Activity (umolequiv/umol): 0.73
PC-12
  viability at 10 µM: 47.9%
[2]
  IC50: 3.45 µM

## VITAMIN E
PC-12
  Activity: 57.7%

## COC(=O)c1cc(O)cc(OC)c1C(=O)c1c(O)cc(C)cc1OC
[1]
  Activity (umolequiv/umol): 1.55
PC-12
  viability at 10 µM: 51.7%
[2]
  IC50: > 100 µM

## COc1c(O)c(O)c(C)c2sc(CO)nc12
[1]
  Activity (umolequiv/umol): 0.66
PC-12
  viability at 10 µM: 43.2%
[2]
  IC50: 23.7 µM

## COC(=O)c1c(C(=O)c2c(O)cc(C)cc2OC)c(OC)cc(O)c1[S@+](C)[O-]
[1]
  Activity (umolequiv/umol): 1.59
[2]
  IC50: > 100 µM

## COC(=O)c1c2c(cc(OC)c1C(=O)c1c(O)cc(C)cc1OC)O[C@@H](OC)CS2
[1]
  Activity (umolequiv/umol): 0.08
[2]
  IC50: > 100 µM

## COC(=O)c1c2c(cc(OC)c1C(=O)c1c(O)cc(C)cc1OC)OC(OC)CS2 (racemic)
[1]
  Activity (umolequiv/umol): 0.03
PC-12
  viability at 10 µM: 63.2%
[2]
  IC50: > 100 µM

## COC(=O)c1c(SC[C@H]2NC(=O)CNC2=O)c(O)cc(OC)c1C(=O)c1c(O)cc(C)cc1OC
[1]
  Activity (umolequiv/umol): 0.78
PC-12
  viability at 10 µM: 54.2%
[2]
  IC50: > 100 µM

## COC(=O)c1c(C(=O)c2c(O)cc(C)cc2OC)c(OC)cc(O)c1[S@@+](C)[O-]
[1]
  Activity (umolequiv/umol): 1.76
[2]
  IC50: > 100 µM

## COC(=O)c1c2c(cc(OC)c1C(=O)c1c(O)cc(C)cc1OC)O[C@H](OC)CS2
[1]
  Activity (umolequiv/umol): 0.02
[2]
  IC50: > 100 µM

## COC(=O)c1c(C(=O)c2c(O)cc(C)cc2OC)c(OC)cc(O)c1[S+](C)[O-] (racemic)
[1]
  Activity (umolequiv/umol): 1.73
PC-12
  viability at 10 µM: 62.4%
[2]
  IC50: > 100 µM

## COC(=O)CSc1c(O)cc(OC)c(C(=O)c2c(O)cc(C)cc2OC)c1C(=O)OC
[1]
  Activity (umolequiv/umol): 1.65
PC-12
  viability at 10 µM: 49.1%
[2]
  IC50: > 100 µM

## O=C1O[C@H]([C@@H](O)CO)C(O)=C1O [ASCORBIC ACID]
[2]
  IC50: 11.9 µM

## COC1=CC(=O)C(C)=C(O)C1=O
[1]
  Activity (umolequiv/umol): 0.67
PC-12
  viability at 10 µM: 50%
[2]
  IC50: 17.3 µM
